In US12264128B1, “Acid as an antioxidant compound” (KING FAISAL UNIVERSITY, priority 2023, dated 2025):

Assay: DPPH radical scavenging antioxidant test
Conditions: 517 nm; for Inhibition (radical scavenging inhibition): 0.2 mL DPPH (0.75 mM), compound 3 μM in ethanol, 30 min incubation in the dark
Description: The antioxidant properties of the 8-((3,4-dihydroxyphenyl)diazenyl)naphthalene-1,3-disulfonic acid were studied by adding 0.2 mL DPPH (0.75 mM)) to compound 8-((3,4-dihydroxyphenyl)diazenyl)naphthalene-1,3-disulfonic acid (III) (3 μM) in ethanol. After 30 min of incubation in the dark, the absorbance was read against a blank at 517 nm. Ascorbic acid (vitamin C) was used as standard antioxidants (positive control). A blank sample was prepared by 0.2 ml of DPPH in 3 ml ethanol. A negative control sample was run using ethanol instead of the sample. The radical scavenging inhibition was calculated using the following equation: […]
The antioxidant activity for the synthesized compound is listed in Table 1, using Vitamin C as a reference.

O=C1O[C@H]([C@@H](O)CO)C(O)=C1O [vit c, Ascorbic acid, reference compound]
Inhibition (radical scavenging inhibition): 74%

O=S(=O)(O)c1cc(S(=O)(=O)O)c2c(/N=N/c3ccc(O)c(O)c3)cccc2c1 [Product III, 8-((3,4-dihydroxyphenyl)diazenyl)naphthalene-1,3-disulfonic acid]
Inhibition (radical scavenging inhibition): 54%
antioxidant potential compared to vitamin C (in words) (DPPH in vitro test, vitamin C as positive control): high potential as an antioxidant compared to vitamin C
